Laboratory results published in the Deep4Chem optical property database.

Assay: photoluminescence quantum yield (fraction); solvent given as SMILES

Compound CN(CC(O)c1cccc(O)c1)c1ccc([N+](=O)[O-])c(C2CC(c3cccc4ccccc34)=NN2c2ccccc2)c1 (stereo not drawn) has a photoluminescence quantum yield (in C1CCCCC1) of 0.16, a photoluminescence quantum yield (in C1CCOC1) of 0.27 and a photoluminescence quantum yield (in C1COCCO1) of 0.5. The photoluminescence quantum yield (in CC#N) was 0.25, the photoluminescence quantum yield (in CC(C)O) was 0.17 and the photoluminescence quantum yield (in CCOC(C)=O) was 0.25. The photoluminescence quantum yield (in CCOCC) was 0.23, the photoluminescence quantum yield (in CO) was 0.19 and the photoluminescence quantum yield (in Cc1ccccc1) was 0.18. The photoluminescence quantum yield (in ClC(Cl)Cl) was 0.22 and the photoluminescence quantum yield (in O) was 0.16.
In the case of COc1ccc(-n2nc(C#N)c(N3CCC(N4CCCCC4)CC3)n2)cc1, the photoluminescence quantum yield (in CC#N) is reported as 0.156.
COC(=O)C[C@H](NC(=O)[C@H](Cc1c[nH]c2ccccc12)NC(=O)OC(C)(C)C)C(=O)OC showed a photoluminescence quantum yield (in CC#N) of 0.36, a photoluminescence quantum yield (in CCOC(C)=O) of 0.39 and a photoluminescence quantum yield (in CO) of 0.27.
COC(=O)C12N=N[C@](C(=O)OC)(C3C4C=CC(C4)C31)[C@@H]1C[C@H]12 (stereo partly drawn) gave a photoluminescence quantum yield (in CC#N) of 0.034.
Cc1nc2c(ccc3ccc(O)cc32)oc1=O showed a photoluminescence quantum yield (in c1ccccc1) of 0.358.
Cc1ccc(-c2c3nc(c(-c4ccc(C)cc4)c4ccc([nH]4)c(-c4ccc(OC(=O)C(C)c5ccccc5)cc4)c4nc(c(-c5ccc(C)cc5)c5ccc2[nH]5)C=C4)C=C3)cc1 (stereo not drawn) gave a photoluminescence quantum yield (in ClCCl) of 0.123.
Compound COc1ccc(C#Cc2c3ccccc3c(C#Cc3ccc(OC)cc3)c3cc4sc(C)cc4cc23)cc1 has a photoluminescence quantum yield (in ClCCl) of 0.75.
For O=[N+]([O-])c1ccc(F)cc1C1CC(c2cccc3ccccc23)=NN1c1ccccc1 (stereo not drawn), the photoluminescence quantum yield (in C1CCCCC1) was 0.24, the photoluminescence quantum yield (in C1CCOC1) was 0.3 and the photoluminescence quantum yield (in C1COCCO1) was 0.46. The photoluminescence quantum yield (in CC#N) was 0.2, the photoluminescence quantum yield (in CC(C)O) was 0.19 and the photoluminescence quantum yield (in CCOC(C)=O) was 0.15. It also gave a photoluminescence quantum yield (in CCOCC) of 0.2, a photoluminescence quantum yield (in CO) of 0.14 and a photoluminescence quantum yield (in Cc1ccccc1) of 0.22. It also gave a photoluminescence quantum yield (in ClC(Cl)Cl) of 0.12 and a photoluminescence quantum yield (in O) of 0.12.
For CCOC(=O)c1cc(C(=O)OCC)c2cc(N(CC)CC)ccc2n1, the photoluminescence quantum yield (in CCO) was 0.49.
Work on O=C([O-])c1c(Cl)c(Cl)c(Cl)c(Cl)c1-c1c2cc(I)c(=O)c(I)c-2oc2c(I)c([O-])c(I)cc12 yielded a photoluminescence quantum yield (in CC(C)O) of 0.14, a photoluminescence quantum yield (in CCO) of 0.11 and a photoluminescence quantum yield (in CO) of 0.08. It also gave a photoluminescence quantum yield (in O) of 0.018.
For Cc1cc(C)c2c(c1)c1cc(C)cc(C)c1n2-c1ccc2c(c1)B(c1c(C(C)C)cc(C(C)C)cc1C(C)C)c1cc(-n3c4c(C)cc(C)cc4c4cc(C)cc(C)c43)ccc1N2c1ccccc1, the photoluminescence quantum yield (in c1cc(-c2cccc(-n3c4ccccc4c4ccccc43)c2)cc(-n2c3ccccc3c3ccccc32)c1) was 0.56.
N#Cc1ccc(-c2cn3cc(C#N)c[n+]3[n-]2)cc1 showed a photoluminescence quantum yield (in ClCCl) of 0.45.
CC1(C)C(/C=C/C2=C(Oc3ccc(CCN=C=S)cc3Br)C(=C/C=C3/N(CCCS(=O)(=O)[O-])c4ccccc4C3(C)C)/CCC2)=[N+](CCCS(=O)(=O)[O-])c2ccccc21 showed a photoluminescence quantum yield (in CO) of 0.14.
CCCCCCN1C(=O)c2cccc3c(-c4ccc(-c5cc(-c6ccc(OC)cc6)n(-c6ccccc6)n5)s4)ccc(c23)C1=O gave a photoluminescence quantum yield (in ClCCl) of 0.38.
With CCOC(=O)c1ccccc1-c1c2ccc(=[N+](CC)CC)cc-2oc2cc(N(CC)CC)ccc12 the photoluminescence quantum yield (in CC#N) was 0.39, the photoluminescence quantum yield (in CCO) was 0.69 and the photoluminescence quantum yield (in CN(C)C=O) was 0.39. It also gave a photoluminescence quantum yield (in O) of 0.34.
Compound CCCC1(CCC)c2cc(-c3ccc(OC)cc3)ccc2-c2ccc(-c3ccc4c(c3)C(CCC)(CCC)c3cc(-c5ccc(OC)cc5)ccc3-4)cc21 has a photoluminescence quantum yield (in C1CCCCC1) of 1.
Work on COC(=O)/C=C/C=C/C1=CC2=C(c3c(C)cc(C)cc3C)c3cc(/C=C/C=C/C(=O)OC)cn3[B-](F)(F)[N+]2=C1 yielded a photoluminescence quantum yield (in ClCCl) of 0.054.
Compound CCCCC(CC)CN1C(=O)c2cccc3c(C#Cc4ccc(N(c5ccccc5)c5ccc(C#Cc6ccc7c8c(cccc68)C(=O)N(CC(CC)CCCC)C7=O)cc5)cc4)ccc(c23)C1=O (stereo not drawn) has a photoluminescence quantum yield (in C1CCCCC1) of 0.93, a photoluminescence quantum yield (in C1CCOC1) of 0.85 and a photoluminescence quantum yield (in CC#N) of 0.012. It also gave a photoluminescence quantum yield (in Cc1ccccc1) of 0.94 and a photoluminescence quantum yield (in ClC(Cl)Cl) of 0.44.
Cc1ccc(C)n1-c1ccccc1 showed a photoluminescence quantum yield (in CC#N) of 0.012 and a photoluminescence quantum yield (in CCCCCC) of 0.005.
With CCOC(=O)c1ccc(C2CC(c3cccc4ccccc34)=NN2c2ccc(F)cc2)cc1 (stereo not drawn) the photoluminescence quantum yield (in ClCCl) was 0.191.
